Assays:
[1] = biological target: PRMT5/MEP50 complex (Homo sapiens (Human), UniProt O14744); assay: Biochemical assay: PRMT5/MEP50 methylation of histone H4 based AcH4-23, SPA readout; settings: PRMT5/MEP50 2.5 nM, 300 nM AcH4-23, 1 μM 3H-SAM
Method: Biochemical Assay Protocol
Compounds were solubilized and 3-fold diluted in 100% DMSO. […] Standard reactions were performed in a total volume of 30 μl in assay buffer, with 300 nM histone H4 based AcH4-23 (Anaspec: AS-65002) as substrate. To this was added the PRMT5/MEP50 complex diluted to provide a final assay concentration of 2.5 nM and the compounds were allowed to preincubate for 20 minutes at 37° C. The reaction was initiated by adding S-[3H-methyl]-adenosyl-L-methionine (PerkinElmer: NET155001MC) to final concentration of 1 μM. Following a 30 minutes incubation at 37° C., the reaction was stopped by adding 25 μL of 8M Guanidine HCl. Prepare streptavidin YSI SPA beads (Perkinelmer: RPNQ0012) at 0.3 mg/mL in assay buffer. To each reaction, add 150 μL of SPA beads suspension, and incubated while shaking at room temperature for 30 minutes. The plate was centrifuged at 100×g for 30 second before reading in a scintillation counter. IC50 values were determined by fitting the data to the standard 4 parameters with Hill Slope using GraphPad Prism software.

[2] = tested on: U-87 MG cells; assay: Cell proliferation assay (CCK-8, day 10) in U-87 MG cells; type: cell-based; settings: Homo sapiens, 240 h, U-87 MG cell line, read-out: Prolif. IC50
Method: Cell Proliferation Assay to Determine IC50 in Granta-519 and U-87 MG Cells
One day before experiment, Granta-519 cells were passaged to a density of 0.5×10^6 cells/ml. U-87 MG cells were trypsinized and 2,000 cells were seeded into 96-well plates and allow to grow overnight. On the day of experiment (day 0), Granta-519 Cells were spun down at 1,500 rpm for 4 min, resuspended in fresh medium to 0.5×10^6 cells/ml and 190 ul of cells were added to 96 well plates. For U-87 MG cells, old medium was removed and replaced with 190 uL fresh medium. Compound working stocks were first diluted at 1:50 with fresh medium in 96 well plate and 10 μL of diluted drugs were added to 96 well plates containing cells and incubated for 3 days. DMSO was used a vehicle control.
One day 3, 50 uL of Granta-519 cells were transferred to a new 96-well plate and 140 uL fresh medium was added. For U-87 MG cells, old medium was removed and replaced with 190 uL fresh medium. Compound working stocks were freshly diluted at 1:50 with medium and 10 μL of diluted drugs were added to cells and grow for 3additional days. The same process was repeated on day 6. Cells were allowed to grow for additional 4 days.
On day 10, 100 uL Granta-519 cells were transferred to a new 96 well plate and 10 μL of Cell Counting Kit-8 (CCK-8, Jojindo, CK04-13) solution was added. For U-87 MG cells, old medium was removed and replaced with 100 uL fresh medium and 10 uL CCK-8 solution was added. Plates were incubated in CO2 incubator for 2 hours (Granta-519 cells) or 30 min (U-87 MG cells) and OD450 values were measured with a microplate reader (iMark microplate reader, Bio-Rad). Percentage of viable cells, relative to DMSO vehicle control, were calculated and plotted in Graphpad Prism ([Inhibitor] vs. normalized response-Variable slope) to determine proliferation IC50 values on day 10.

[3] = tested on: sDMA marks (SmD3me2s) in U-87 MG cells; assay: Western blotting for symmetric di-methyl arginine (sDMA) marks in U-87 MG cells; type: cell-based; settings: Homo sapiens, 72 h; U-87 MG cell line, 3 days
Method: Cell Treatment and Western Blotting for Detecting Symmetric Di-Methyl Arginine (sDMA) Marks
Compound Titration and Cell Culture:
Compounds were dissolved in DMSO to make 10 mM stock and 3-fold series dilutions were further conducted to make working stocks top at 1 mM. Granta-519 cells were maintained in PRMI 1640 (Corning Cellgro, Catalog #: 10-040-CV) supplemented with 10% v/v FBS (GE Healthcare, Catalog #: SH30910.03) and U-87 MG cells were maintained in DMEM (Corning Cellgro, Catalog #: 10-013-CV) with 10% FBS and 2 mM Glutamin (Corning Cellgro, Catalog #25005CV).
To determine enzyme inhibition IC50 values in Granta-519 and U-87 MG cells using Western Blot analysis. One day before experiment, Granta-519 cells were passaged to a density of 0.5×10^6 cells/ml. U-87 MG cells were trypsinized and 4×10^5 cells were seeded into 6-well plates and allow to grow overnight. The next day, Granta-519 cells were spun down at 1,500 rpm for 4 min, resuspend in fresh medium at 0.5×10^6 cells/ml and 3 mL of culture (1.5×10^6 cells) were seeded into 6 well plate. Eight-point, 3-fold serial dilutions of compound working stocks were added to cells (3 ul, 1:1,000 dilution, DMSO concentration was 0.1%; final top concentration at 1 uM) and incubated for 3 days. Cells incubated with DMSO was used as a vehicle control.
Cells were harvested 3 days later, resuspended in 15 uL PBS, lysed in 4% SDS, and homogenized by passing through homogenizer column (Omega Biotek, Catalog #: HCR003). Total protein concentrations were determined by BCA assay (ThermoFisher Scientific, Catalog #: 23225). Lysates were mixed with 5× Laemmli buffer and boiled for 5 min. Forty ug of total protein was separated on SDS-PAGE gels (Bio-Rad, catalog #: 4568083, 4568043), transferred to PVDF membrane, blocked with 5% dry milk (Bio-Rad, Catalog #: 1706404) in TBS with 0.1% v/v Tween 20 (TBST) for 1 hour at room temperature (RT), and incubated with primary antibodies (sDMA: Cell signaling, Catalog #: 13222, 1:3,000; β-Actin: sigma, Catalog #: 1:5,000) in 5% dry milk in TBST at 4° C. overnight. The next day, membranes were washed with TBST, 5×5 min, and incubated with HRP conjugated seconded antibody (GE Healthcare; Catalog #: NA934-1ML, NA931-1ML; 1:5,000) for 2 hours at RT, followed by 5×5 min washes with TBST, and incubation with ECL substrates (Bio-Rad, Catalog #: 1705061, 1705062). Chemiluminescent signal was captured with Fluochem HD2 imager (Proteinsimple). SmD3me2s bands were quantified by ImageJ. Signals were normalized to β-Actin and DMSO control. IC50 values were calculated using Graphpad Prism ([Inhibitor] vs. normalized response-Variable slope).

Sequence of PRMT5/MEP50 complex (O14744 whole entry): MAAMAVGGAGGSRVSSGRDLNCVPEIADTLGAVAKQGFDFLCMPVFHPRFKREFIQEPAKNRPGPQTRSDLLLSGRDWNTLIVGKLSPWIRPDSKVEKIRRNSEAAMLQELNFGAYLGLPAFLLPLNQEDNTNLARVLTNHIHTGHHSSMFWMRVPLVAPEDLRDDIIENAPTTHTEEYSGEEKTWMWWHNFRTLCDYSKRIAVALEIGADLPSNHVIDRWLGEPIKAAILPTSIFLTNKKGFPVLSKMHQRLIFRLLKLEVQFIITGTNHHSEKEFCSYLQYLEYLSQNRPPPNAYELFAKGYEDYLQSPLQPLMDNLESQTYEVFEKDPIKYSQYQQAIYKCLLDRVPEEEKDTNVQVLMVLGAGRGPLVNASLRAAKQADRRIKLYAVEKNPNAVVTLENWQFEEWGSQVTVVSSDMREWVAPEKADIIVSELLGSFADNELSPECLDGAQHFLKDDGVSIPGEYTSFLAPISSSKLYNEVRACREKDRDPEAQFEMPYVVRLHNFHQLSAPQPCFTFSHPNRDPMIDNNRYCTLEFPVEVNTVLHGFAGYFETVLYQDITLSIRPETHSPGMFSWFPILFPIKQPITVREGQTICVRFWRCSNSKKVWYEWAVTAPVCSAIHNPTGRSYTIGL
Sequence of PRMT5/MEP50 complex (Q9BQA1 whole entry partner): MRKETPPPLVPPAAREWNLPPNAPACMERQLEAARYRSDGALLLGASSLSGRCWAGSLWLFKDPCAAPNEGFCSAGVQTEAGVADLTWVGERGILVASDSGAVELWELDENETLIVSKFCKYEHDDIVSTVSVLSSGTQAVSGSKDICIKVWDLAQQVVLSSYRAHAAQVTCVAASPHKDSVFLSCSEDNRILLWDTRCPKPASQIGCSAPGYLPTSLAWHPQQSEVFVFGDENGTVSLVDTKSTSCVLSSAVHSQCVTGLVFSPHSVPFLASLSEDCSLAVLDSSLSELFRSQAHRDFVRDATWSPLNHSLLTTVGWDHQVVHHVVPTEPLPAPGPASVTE

| SMILES | IC50 [1] | IC50 [2] | IC50 [3] |
| --- | --- | --- | --- |
| Nc1ncnc2c1ccn2[C@@H]1O[C@H]([C@@H]2OCCc3cc(Cl)c(Cl)cc32)[C@@H](O)[C@H]1O [Example 88, (2R,3R,4S,5S)-2-(4-amino-7H-pyrrolo[2,3-d]pyrimidin-7-yl)-5-((R)-6,7-dichloroisochroman-1-yl)tetrahydrofuran-3,4-diol] | 1.6 nM | 60 nM | 18.5 nM |
| Cc1ncnc2c1c(F)cn2[C@@H]1O[C@H]([C@@H]2OCCc3cc(Cl)ccc32)[C@@H](O)[C@H]1O [Example 85, (2S,3S,4R,5R)-2-((R)-6-chloroisochroman-1-yl)-5-(5-fluoro-4-methyl-7H-pyrrolo[2,3-d]pyrimidin-7-yl)tetrahydrofuran-3,4-diol] | 14.7 nM | 304 nM | 173 nM |
| Cc1ncnc2c1ccn2[C@@H]1O[C@H]([C@@H]2OCCc3cc(Cl)sc32)[C@@H](O)[C@H]1O [Example 89, (2S,3S,4R,5R)-2-((S)-2-chloro-4,7-dihydro-5H-thieno[2,3-c]pyran-7-yl)-5-(4-methyl-7H-pyrrolo[2,3-d]pyrimidin-7-yl)tetrahydrofuran-3,4-diol] | 15.7 nM | 179 nM | 84.4 nM |
| Nc1ncnc2c1ccn2[C@@H]1O[C@H]([C@@H]2OCCc3c(Cl)cccc32)[C@@H](O)[C@H]1O [Example 72, (2R,3R,4S,5S)-2-(4-amino-7H-pyrrolo[2,3-d]pyrimidin-7-yl)-5-((R)-5-chloroisochroman-1-yl)tetrahydrofuran-3,4-diol] | 2.98 nM | 78 nM | – |
| Nc1ncnc2c1ccn2[C@@H]1C[C@H]([C@@H]2OCc3cc(Cl)ccc32)[C@@H](O)[C@H]1O [Example 2B, (1R,2S,3R,5S)-3-(4-amino-7H-pyrrolo[2,3-d]pyrimidin-7-yl)-5-((S)-5-chloro-1,3-dihydroisobenzofuran-1-yl)cyclopentane-1,2-diol] | 31 nM | > 1000 nM | 563 nM |
| Nc1ncnc2c1ccn2[C@@H]1O[C@H]([C@@H]2OCCc3cc(F)c(F)cc32)[C@@H](O)[C@H]1O [Example 73, (2R,3R,4S,5S)-2-(4-amino-7H-pyrrolo[2,3-d]pyrimidin-7-yl)-5-((R)-6,7-difluoroisochroman-1-yl)tetrahydrofuran-3,4-diol] | 1.45 nM | 9.1 nM | – |

Now from value to molecule:

| IC50 [1] | IC50 [2] | IC50 [3] | SMILES |
| --- | --- | --- | --- |
| 11.7 nM | 10000 nM | 4580 nM | Cc1ncnc2c1ccn2[C@@H]1O[C@H]([C@@H]2OCOCc3cc(Cl)ccc32)[C@@H](O)[C@H]1O [Example 55, (2S,3S,4R,5R)-2-((R)-7-chloro-1,5-dihydrobenzo[e][1,3]dioxepin-1-yl)-5-(4-methyl-7H-pyrrolo[2,3-d]pyrimidin-7-yl)tetrahydrofuran-3,4-diol] |
| 7.28 nM | 66 nM | – | Cc1ncnc2c1ccn2[C@@H]1O[C@H]([C@@H]2OCCc3cc(F)c(F)cc32)[C@@H](O)[C@H]1O [Example 74, (2S,3S,4R,5R)-2-((R)-6,7-difluoroisochroman-1-yl)-5-(4-methyl-7H-pyrrolo[2,3-d]pyrimidin-7-yl)tetrahydrofuran-3,4-diol] |
| 15.1 nM | 339 nM | – | Cc1ncnc2c1ccn2[C@@H]1O[C@H]([C@@H]2OCCc3c(Cl)cccc32)[C@@H](O)[C@H]1O [Example 75, (2S,3S,4R,5R)-2-((R)-5-chloroisochroman-1-yl)-5-(4-methyl-7H-pyrrolo[2,3-d]pyrimidin-7-yl)tetrahydrofuran-3,4-diol] |
| 13.2 nM | 377 nM | 199 nM | Cc1ncnc2c1ccn2[C@@H]1O[C@H]([C@@H]2OCCc3c2ccc(Cl)c3F)[C@@H](O)[C@H]1O [Example 83, (2S,3S,4R,5R)-2-((R)-6-chloro-5-fluoroisochroman-1-yl)-5-(4-methyl-7H-pyrrolo[2,3-d]pyrimidin-7-yl)tetrahydrofuran-3,4-diol] |
| 4.7 nM | 117 nM | 51.7 nM | Cc1ncnc2c1ccn2[C@@H]1O[C@H]([C@@H]2OCOc3c2ccc(F)c3F)[C@@H](O)[C@H]1O [Example 97, (2S,3S,4R,5R)-2-((R)-7,8-difluoro-4H-benzo[d][1,3]dioxin-4-yl)-5-(4-methyl-7H-pyrrolo[2,3-d]pyrimidin-7-yl)tetrahydrofuran-3,4-diol] |
| 14.9 nM | 181 nM | 109 nM | CNc1ncnc2c1ccn2[C@@H]1O[C@H]([C@@H]2OCCc3cc(Cl)ccc32)[C@@H](O)[C@H]1O [Example 69, (2S,3S,4R,5R)-2-((R)-6-chloroisochroman-1-yl)-5-(4-(methylamino)-7H-pyrrolo[2,3-d]pyrimidin-7-yl)tetrahydrofuran-3,4-diol] |
| 303 nM | 458 nM | 382 nM | Cc1ncnc2c1ccn2[C@@H]1O[C@H]([C@@H]2OCCc3ccc(Cl)cc32)[C@@H](O)[C@H]1O [Example 70, (2S,3S,4R,5R)-2-((R)-7-chloroisochroman-1-yl)-5-(4-methyl-7H-pyrrolo[2,3-d]pyrimidin-7-yl)tetrahydrofuran-3,4-diol] |
| 4.8 nM | 54 nM | 17.6 nM | Cc1ncnc2c1ccn2[C@@H]1O[C@H]([C@@H]2OCCc3cc(Cl)ccc32)[C@@H](O)[C@H]1O [Example 22, (2S,3S,4R,5R)-2-((R)-6-chloroisochroman-1-yl)-5-(4-methyl-7H-pyrrolo[2,3-d]pyrimidin-7-yl)tetrahydrofuran-3,4-diol] |
| 11.9 nM | 662 nM | 579 nM | Cc1ncnc2c1ccn2[C@@H]1O[C@H]([C@@H]2NCCc3cc(Cl)ccc32)[C@@H](O)[C@H]1O [Example 98, (2R,3S,4R,5R)-2-[(1R)-6-chloro-1,2,3,4-tetrahydroisoquinolin-1-yl]-5-(4-methylpyrrolo[2,3-d]pyrimidin-7-yl)tetrahydrofuran-3,4-diol] |
